Measured values from patent publication US9700047B2, “Macrocyclic picolinamides as fungicides” (Dow AgroSciences LLC, priority 2014, dated 2017).
Like-named read-outs stand apart in the source and are kept apart here.

Test system: Puccinia triticina; Synonym: Puccinia recondita f sp. tritici
Test: Wheat brown rust (PUCCRT) disease control on wheat seedlings
Format: in vivo
Conditions: for pest or weed control at 100 ppm: High Volume activity at 100 ppm; for pest or weed control at 121.5 g/ha: Low Volume activity at 121.5 g/H
Protocol: All fungicides were evaluated using the aforementioned method for their activity vs. all target diseases, unless stated otherwise. Wheat leaf blotch and brown rust activity were also evaluated using track spray applications, in which case the fungicides were formulated as EC formulations, containing 0.1% Trycol 5941 in the spray solutions. Wheat plants (variety Yuma) were grown from seed in a greenhouse in 50% mineral soil/50% soil-less Metro mix until the first leaf was fully emerged, with 7-10 seedlings per pot. These plants were inoculated with an aqueous spore suspension of Puccinia triticina either prior to or after fungicide treatments. […] The plants were then transferred to a greenhouse set at 24° C. for disease to develop. Fungicide formulation, application and disease assessment followed the procedures as described in the Example A.

[1] = 24 h, 1 Day Protectant, read-out: PUCCRT 1DP % Control rating
[2] = 72 h, 3 Day Curative, read-out: PUCCRT 3DC % Control rating

SMILES | pest or weed control at 100 ppm [1] | pest or weed control at 121.5 g/ha [1] | pest or weed control at 100 ppm [2] | pest or weed control at 121.5 g/ha [2]
CCCC[C@@H]1[C@@H](Cc2ccccc2)CCC[C@H](NC(=O)c2nccc(OC)c2OC(C)=O)C(=O)O[C@H]1C [Compound 1, 2-(((3S,7R,8R,9S)-7-benzyl-8-butyl-9-methyl-2-oxooxonan-3-yl)carbamoyl)-4-methoxypyridin-3-yl acetate] | > 70% | > 70% | > 70% | < 70%
CCCC[C@@H]1[C@@H](Cc2ccccc2)CCC[C@H](NC(=O)c2nccc(OC)c2OCOC(C)=O)C(=O)O[C@H]1C [Compound 2, ((2-(((3S,7R,8R,9S)-7-benzyl-8-butyl-9-methyl-2-oxooxonan-3-yl)carbamoyl)-4-methoxypyridin-3-yl)oxy)methyl acetate] | > 70% | > 70% | > 70% | < 70%
COc1ccnc(C(=O)N[C@H]2CCC[C@H](CCC(C)C)[C@@H](Cc3ccccc3)[C@H](C)OC2=O)c1OC(C)=O [Compound 4] | – | > 70% | – | < 70%
COc1ccnc(C(=O)N[C@H]2CCC[C@H](Cc3ccccc3)[C@@H](Cc3ccccc3)[C@H](C)OC2=O)c1OC(C)=O [Compound 5] | – | > 70% | – | > 70%
COc1ccnc(C(=O)N[C@H]2CCC[C@H](Cc3ccccc3)[C@@H](Cc3ccccc3)[C@H](C)OC2=O)c1OCOC(C)=O [Compound 6] | – | > 70% | – | > 70%
COc1ccnc(C(=O)N[C@H]2CCC[C@H](Cc3ccccc3)[C@@H](Cc3ccccc3)[C@H](C)OC2=O)c1OCOC(=O)C(C)C [Compound 7, ((2-(((3S,7R,8R,9S)-7,8-dibenzyl-9-methyl-2-oxooxonan-3-yl)carbamoyl)-4-methoxypyridin-3-yl)oxy)methyl isobutyrate] | – | > 70% | – | > 70%
CCOCC(=O)OCOc1c(OC)ccnc1C(=O)N[C@H]1CCC[C@H](Cc2ccccc2)[C@@H](Cc2ccccc2)[C@H](C)OC1=O [Compound 8, ((2-(((3S,7R,8R,9S)-7,8-dibenzyl-9-methyl-2-oxooxonan-3-yl)carbamoyl)-4-methoxypyridin-3-yl)oxy)methyl 2-ethoxyacetate] | – | > 70% | – | < 70%
COc1ccnc(C(=O)N[C@H]2CCC[C@H](Cc3ccccc3)[C@@H](C3CCCC3)[C@H](C)OC2=O)c1OC(C)=O [Compound 9] | – | > 70% | – | < 70%
COc1ccnc(C(=O)N[C@H]2CCC[C@H](Cc3ccccc3)[C@@H](C3CCCC3)[C@H](C)OC2=O)c1OCOC(C)=O [Compound 10] | – | > 70% | – | > 70%
COc1ccnc(C(=O)N[C@H]2CCC[C@H](Cc3ccc(Cl)cc3)[C@@H](CC(C)C)[C@H](C)OC2=O)c1OCOC(C)=O [Compound 12] | – | > 70% | – | < 70%
COc1ccnc(C(=O)N[C@H]2CCC[C@H](Cc3ccc(Cl)cc3)[C@@H](CC(C)C)[C@H](C)OC2=O)c1OC(C)=O [Compound 13] | – | > 70% | – | < 70%
COc1ccnc(C(=O)N[C@H]2CCC[C@H](Cc3ccccc3)[C@@H](CC(C)C)[C@H](C)OC2=O)c1OCOC(C)=O [Compound 14] | – | > 70% | – | < 70%
COc1ccnc(C(=O)N[C@H]2CCC[C@H](Cc3ccccc3)[C@@H](CCc3ccccc3)[C@H](C)OC2=O)c1OCOC(C)=O [Compound 15] | – | > 70% | – | < 70%
CCOCC(=O)OCOc1c(OC)ccnc1C(=O)N[C@H]1CCC[C@H](Cc2ccccc2)[C@@H](CCc2ccccc2)[C@H](C)OC1=O [Compound 16] | – | > 70% | – | > 70%
COc1ccnc(C(=O)N[C@H]2CCC[C@H](Cc3ccccc3)[C@@H](CCc3ccccc3)[C@H](C)OC2=O)c1OCOC(=O)C(C)C [Compound 17] | – | > 70% | – | < 70%
COc1ccnc(C(=O)N[C@H]2CCC[C@H](Cc3ccccc3)[C@@H](CCc3ccccc3)[C@H](C)OC2=O)c1OC(C)=O [Compound 18] | – | < 70% | – | < 70%
COc1ccnc(C(=O)N[C@H]2CCC[C@H](Cc3ccc(Cl)cc3)[C@@H](Cc3ccccc3)[C@H](C)OC2=O)c1OCOC(C)=O [Compound 19] | – | > 70% | – | < 70%
CCOCC(=O)OCOc1c(OC)ccnc1C(=O)N[C@H]1CCC[C@H](Cc2ccc(Cl)cc2)[C@@H](Cc2ccccc2)[C@H](C)OC1=O [Compound 20] | – | > 70% | – | > 70%
COc1ccnc(C(=O)N[C@H]2CCC[C@H](Cc3ccc(Cl)cc3)[C@@H](Cc3ccccc3)[C@H](C)OC2=O)c1OC(C)=O [Compound 21] | – | > 70% | – | < 70%
COc1ccnc(C(=O)N[C@H]2CCC[C@H](Cc3ccc(C(F)(F)F)cc3)[C@@H](CC(C)C)[C@H](C)OC2=O)c1OC(C)=O [Compound 22] | – | > 70% | – | < 70%

SMILES | pest or weed control at 100 ppm [1] | pest or weed control at 121.5 g/ha [1] | pest or weed control at 100 ppm [2] | pest or weed control at 121.5 g/ha [2]
COc1ccnc(C(=O)N[C@H]2CCC[C@H](Cc3ccc(C(F)(F)F)cc3)[C@@H](CC(C)C)[C@H](C)OC2=O)c1OCOC(C)=O [Compound 23] | – | > 70% | – | < 70%
COc1ccnc(C(=O)N[C@H]2CCC[C@H](Cc3ccc(C(F)(F)F)cc3)[C@@H](CC(C)C)[C@H](C)OC2=O)c1OCOC(=O)C(C)C [Compound 24] | – | < 70% | – | < 70%
COc1ccnc(C(=O)N[C@H]2CCC[C@H](Cc3ccc(C(F)(F)F)cc3)[C@@H](Cc3ccccc3)[C@H](C)OC2=O)c1OC(C)=O [Compound 25] | – | < 70% | – | < 70%
COc1ccnc(C(=O)N[C@H]2CCC[C@H](Cc3ccc(C(F)(F)F)cc3)[C@@H](Cc3ccccc3)[C@H](C)OC2=O)c1OCOC(C)=O [Compound 26] | – | > 70% | – | < 70%
COc1ccnc(C(=O)N[C@H]2CCC[C@H](Cc3ccc(C(F)(F)F)cc3)[C@@H](Cc3ccccc3)[C@H](C)OC2=O)c1OCOC(=O)C(C)C [Compound 27] | – | > 70% | – | < 70%
COc1ccnc(C(=O)N[C@H]2CCC[C@H](Cc3ccc(Cl)cc3)[C@@H](C3CCCC3)[C@H](C)OC2=O)c1OC(C)=O [Compound 28] | – | > 70% | – | < 70%
COc1ccnc(C(=O)N[C@H]2CCC[C@H](Cc3ccc(Cl)cc3)[C@@H](C3CCCC3)[C@H](C)OC2=O)c1OCOC(C)=O [Compound 29] | – | > 70% | – | < 70%
COc1ccnc(C(=O)N[C@H]2CCC[C@H](Cc3ccc(Cl)cc3)[C@@H](C3CCCC3)[C@H](C)OC2=O)c1OCOC(=O)C(C)C [Compound 30] | – | < 70% | – | < 70%
CCOCC(=O)OCOc1c(OC)ccnc1C(=O)N[C@H]1CCC[C@H](Cc2ccc(Cl)cc2)[C@@H](C2CCCC2)[C@H](C)OC1=O [Compound 31] | – | > 70% | – | < 70%
COc1ccnc(C(=O)N[C@H]2CCC[C@H](CCCc3ccccc3)[C@@H](CCc3ccccc3)[C@H](C)OC2=O)c1OCOC(C)=O [Compound 32] | – | > 70% | – | < 70%
COc1ccnc(C(=O)N[C@H]2CCC[C@H](CCCc3ccccc3)[C@@H](CCc3ccccc3)[C@H](C)OC2=O)c1OC(C)=O [Compound 33] | – | < 70% | – | < 70%
COc1ccnc(C(=O)N[C@H]2CCC[C@H](CCC(C)C)[C@@H](CCc3ccccc3)[C@H](C)OC2=O)c1OCOC(C)=O [Compound 34] | – | > 70% | – | < 70%
CCOCC(=O)OCOc1c(OC)ccnc1C(=O)N[C@H]1CCC[C@H](CCC(C)C)[C@@H](CCc2ccccc2)[C@H](C)OC1=O [Compound 35] | – | > 70% | – | < 70%
COc1ccnc(C(=O)N[C@H]2CCC[C@H](CCC(C)C)[C@@H](CCc3ccccc3)[C@H](C)OC2=O)c1OC(C)=O [Compound 36] | – | > 70% | – | < 70%
CCC[C@H]1CCC[C@H](NC(=O)c2nccc(OC)c2OCOC(C)=O)C(=O)O[C@@H](C)[C@@H]1Cc1ccccc1 [Compound 37] | – | > 70% | – | > 70%
CCC[C@H]1CCC[C@H](NC(=O)c2nccc(OC)c2OC(C)=O)C(=O)O[C@@H](C)[C@@H]1Cc1ccccc1 [Compound 38] | – | > 70% | – | > 70%
COc1ccnc(C(=O)N[C@H]2CCC[C@H](Cc3ccc(C(F)(F)F)cc3)[C@@H](Cc3ccc(F)cc3)[C@H](C)OC2=O)c1OCOC(C)=O [Compound 39] | – | < 70% | – | < 70%
COc1ccnc(C(=O)N[C@H]2CCC[C@H](Cc3ccc(C(F)(F)F)cc3)[C@@H](Cc3ccc(F)cc3)[C@H](C)OC2=O)c1OC(C)=O [Compound 40] | – | < 70% | – | < 70%
COc1ccnc(C(=O)N[C@H]2CCC[C@H](Cc3ccc(C(F)(F)F)cc3)[C@@H](Cc3ccc(F)cc3)[C@H](C)OC2=O)c1OCOC(=O)C(C)C [Compound 41] | – | < 70% | – | < 70%
